Reference: patent US9012398B2, “Acylated exendin-4 compounds” (priority 2006, dated 2015)
Like-named read-outs stand apart in the source and are kept apart here. Starred links: 1 amine or outer side, 2 acyl side, 3 side chain; linkers in the order of their positions; H or OH if unused. Residues, ends and D or L forms follow the SMILES beside them. Groups on a side chain read outwards from the residue. *: point of attachment. γGlu = O=C(O)[C@H](CCC(=O)[*:2])N[*:1]; Stearoyl = CCCCCCCCCCCCCCCCCC(=O)*; Palmitoyl = CCCCCCCCCCCCCCCC(=O)*; AEEA = NCCOCCOCC(=O)O

Target: T1, human GLP-1 receptor (Homo sapiens, UniProt P43220)
T1 construct: expressed in transfected cells; host or cells: BHK cells, clone BHK-467-12A; plasma membrane preparation
Assay: Functional receptor assay: cAMP formation in plasma membranes of BHK cells expressing the cloned human GLP-1 receptor (GLP1cAMPma)
Assay type: biochemical
Description: The term “insulinotropic agent” as used herein means a compound which is an agonist of the human GLP-1 receptor, i.e. a compound which stimulates the formation of cAMP in a suitable medium containing the human GLP-1 receptor (one such medium disclosed below). The potency of an insulinotropic agent is determined by calculating the EC50 value from the dose-response curve as described below.
The cells were washed twice in phosphate buffered saline and harvested with Versene. Plasma membranes were prepared from the cells by homogenisation with an Ultraturrax in buffer 1 (20 mM HEPES-Na, 10 mM EDTA, pH 7.4). The homogenate was centrifuged at 48,000×g for 15 min at 4° C. The pellet was suspended by homogenization in buffer 2 (20 mM HEPES-Na, 0.1 mM EDTA, pH 7.4), then centrifuged at 48,000×g for 15 min at 4° C. The washing procedure was repeated one more time. The final pellet was suspended in buffer 2 and used immediately for assays or stored at −80° C.
The functional receptor assay was carried out by measuring cyclic AMP (cAMP) as a response to stimulation by the insulinotropic agent. cAMP formed was quantified by the AlphaScreen™ cAMP Kit (Perkin Elmer Life Sciences). Incubations were carried out in half-area 96-well microtiter plates in a total volume of 50 μL buffer 3 (50 mM Tris-HCl, 5 mM HEPES, 10 mM MgCl2, pH 7.4) and with the following additions: 1 mM ATP, 1 μM GTP, 0.5 mM 3-isobutyl-1-methylxanthine (IBMX), 0.01% Tween-20, 0.1% BSA, 6 μg membrane preparation, 15 μg/mL acceptor beads, 20 μg/mL donor beads preincubated with 6 nM biotinyl-cAMP. […] GTP was freshly prepared for each experiment. The plate was incubated in the dark with slow agitation for three hours at room temperature followed by counting in the Fusion™ instrument (Perkin Elmer Life Sciences). Concentration-response curves were plotted for the individual compounds and EC50 values estimated using a four-parameter logistic model with Prism v. 4.0 (GraphPad, Carlsbad, Calif.).

[1] = cAMP, membranes with human GLP-1 receptor, mean value, read-out: GLP1cAMPma (3693) [EC50 (nM)] Mean Value

T1 sequence (P43220 24-463): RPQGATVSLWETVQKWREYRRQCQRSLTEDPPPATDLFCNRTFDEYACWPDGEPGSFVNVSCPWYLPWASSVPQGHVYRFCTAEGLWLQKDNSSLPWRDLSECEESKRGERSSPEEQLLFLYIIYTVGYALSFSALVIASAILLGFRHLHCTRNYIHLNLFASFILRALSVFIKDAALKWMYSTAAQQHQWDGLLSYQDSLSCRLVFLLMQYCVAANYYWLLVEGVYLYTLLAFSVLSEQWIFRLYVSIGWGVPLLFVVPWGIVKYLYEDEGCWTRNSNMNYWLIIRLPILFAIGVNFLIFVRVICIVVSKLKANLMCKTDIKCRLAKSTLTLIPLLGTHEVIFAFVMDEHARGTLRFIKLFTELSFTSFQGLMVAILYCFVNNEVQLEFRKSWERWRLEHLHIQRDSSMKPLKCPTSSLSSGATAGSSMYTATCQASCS

| SMILES | EC50 [nM] | EC50 [1] [nM] |
| --- | --- | --- |
| CCCCCCCCCCCCCCCCCC(=O)NCCOCCOCC(=O)NCCOCCOCC(=O)NCCOCCOCC(=O)NCCCC[C@H](NC(=O)[C@@H]1CCCN1C(=O)CNC(=O)CNC(=O)[C@H](CCCNC(=N)N)NC(=O)[C@@H](NC(=O)[C@H](CC(C)C)NC(=O)[C@H](Cc1c[nH]c2ccccc12)NC(=O)[C@H](CCC(=O)O)NC(=O)[C@@H](NC(=O)[C@H](Cc1ccccc1)NC(=O)[C@H](CC(C)C)NC(=O)[C@H](CCCNC(=N)N)NC(=O)[C@@H](NC(=O)[C@H](C)NC(=O)[C@H](CCC(=O)O)NC(=O)[C@H](CCC(=O)O)NC(=O)[C@H](CCC(=O)O)NC(=O)[C@H](CC(C)C)NC(=O)[C@H](CCC(N)=O)NC(=O)[C@H](CCCNC(=N)N)NC(=O)[C@H](CO)NC(=O)[C@H](CC(C)C)NC(=O)[C@H](CC(=O)O)NC(=O)[C@H](CO)NC(=O)[C@@H](NC(=O)[C@H](Cc1ccccc1)NC(=O)[C@@H](NC(=O)CNC(=O)[C@H](CCC(=O)O)NC(=O)CNC(=O)[C@@H](N)Cc1c[nH]cn1)[C@@H](C)O)[C@@H](C)O)C(C)C)[C@@H](C)CC)C(C)C)C(=O)N[C@@H](CO)C(=O)NCC(=O)N[C@@H](C)C(=O)N1CCC[C@H]1C(=O)N1CCC[C@H]1C(=O)N1CCC[C@H]1C(=O)N[C@@H](CO)C(N)=O [Example 2] (H-HGEGTFTSDLSRQLEEEAVRLFIEWLVRGGPK([AEEA-AEEA-AEEA-Stearoyl])SGAPPPS-NH2) | 0.027 | – |
| CCCCCCCCCCCCCCCCCC(=O)NCCOCCOCC(=O)NCCOCCOCC(=O)NCCOCCOCC(=O)NCCCC[C@H](NC(=O)[C@@H](NC(=O)[C@H](CC(C)C)NC(=O)[C@H](Cc1c[nH]c2ccccc12)NC(=O)[C@H](CCC(=O)O)NC(=O)[C@@H](NC(=O)[C@H](Cc1ccccc1)NC(=O)[C@H](CC(C)C)NC(=O)[C@H](CCCNC(=N)N)NC(=O)[C@@H](NC(=O)[C@H](C)NC(=O)[C@H](CCC(=O)O)NC(=O)[C@H](CCC(=O)O)NC(=O)[C@H](CCC(=O)O)NC(=O)[C@H](CC(C)C)NC(=O)[C@H](CCC(N)=O)NC(=O)[C@H](CCCNC(=N)N)NC(=O)[C@H](CO)NC(=O)[C@H](CC(C)C)NC(=O)[C@H](CC(=O)O)NC(=O)[C@H](CO)NC(=O)[C@@H](NC(=O)[C@H](Cc1ccccc1)NC(=O)[C@@H](NC(=O)CNC(=O)[C@H](CCC(=O)O)NC(=O)CNC(=O)[C@@H](N)Cc1c[nH]cn1)[C@@H](C)O)[C@@H](C)O)C(C)C)[C@@H](C)CC)C(C)C)C(=O)NCC(=O)NCC(=O)N1CCC[C@H]1C(=O)N[C@@H](CO)C(=O)N[C@@H](CO)C(=O)NCC(=O)N[C@@H](C)C(=O)N1CCC[C@H]1C(=O)N1CCC[C@H]1C(=O)N1CCC[C@H]1C(=O)N[C@@H](CO)C(N)=O [Example 3, N-ε^28-(2-(2-(2-(2-(2-(2-(2-(2-(2-(Octadecanoylamino)ethoxy)ethoxy)acetylamino)ethoxy)ethoxy)acetyl-amino)ethoxy)ethoxy)acetyl))[Arg^12,Leu^14,Val^27,Lys^28 Exendin-4(1-39)amide] (H-HGEGTFTSDLSRQLEEEAVRLFIEWLVK([AEEA-AEEA-AEEA-Stearoyl])GGPSSGAPPPS-NH2; N-terminus assumed) | 0.025 | – |
| CCCCCCCCCCCCCCCC(=O)N[C@@H](CCC(=O)NCCOCCOCC(=O)NCCOCCOCC(=O)NCCCC[C@H](NC(=O)[C@@H](NC(=O)[C@H](C)NC(=O)[C@H](CCC(=O)O)NC(=O)[C@H](CCC(=O)O)NC(=O)[C@H](CCC(=O)O)NC(=O)[C@H](CC(C)C)NC(=O)[C@H](CCC(N)=O)NC(=O)[C@H](CCCNC(=N)N)NC(=O)[C@H](CO)NC(=O)[C@H](CC(C)C)NC(=O)[C@H](CC(=O)O)NC(=O)[C@H](CO)NC(=O)[C@@H](NC(=O)[C@H](Cc1ccccc1)NC(=O)[C@@H](NC(=O)CNC(=O)[C@H](CCC(=O)O)NC(=O)CNC(=O)[C@@H](N)Cc1c[nH]cn1)[C@@H](C)O)[C@@H](C)O)C(C)C)C(=O)N[C@@H](CC(C)C)C(=O)N[C@@H](Cc1ccccc1)C(=O)N[C@H](C(=O)N[C@@H](CCC(=O)O)C(=O)N[C@@H](Cc1c[nH]c2ccccc12)C(=O)N[C@@H](CC(C)C)C(=O)N[C@@H](CCCNC(=N)N)C(=O)N[C@@H](CCCNC(=N)N)C(=O)NCC(=O)NCC(=O)N1CCC[C@H]1C(=O)N[C@@H](CO)C(=O)N[C@@H](CO)C(=O)NCC(=O)N[C@@H](C)C(=O)N1CCC[C@H]1C(=O)N1CCC[C@H]1C(=O)N1CCC[C@H]1C(=O)N[C@@H](CO)C(N)=O)[C@@H](C)CC)C(=O)O [Example 4, N-ε^20-[2-(2-[2-(2-[2-(2-[4-hexadecanoylamino-4(S)-carboxybutyrylamino]ethoxy)ethoxy]acetylamino)ethoxy]ethoxy)acetyl] [Arg^12,27,28,Leu^14,Lys^20]Exendin-4(1-39)amide] (H-HGEGTFTSDLSRQLEEEAVK([AEEA-AEEA-γGlu-Palmitoyl])LFIEWLRRGGPSSGAPPPS-NH2; N-terminus assumed) | – | 0.027 |
| CCCCCCCCCCCCCCCC(=O)N[C@@H](CCC(=O)NCCOCCOCC(=O)NCCOCCOCC(=O)NCCCC[C@H](NC(=O)[C@H](CO)NC(=O)[C@H](CO)NC(=O)[C@@H]1CCCN1C(=O)CNC(=O)CNC(=O)[C@H](CC(N)=O)NC(=O)[C@H](CCCNC(=N)N)NC(=O)[C@H](CC(C)C)NC(=O)[C@H](Cc1c[nH]c2ccccc12)NC(=O)[C@H](CCC(=O)O)NC(=O)[C@@H](NC(=O)[C@H](Cc1ccccc1)NC(=O)[C@H](CC(C)C)NC(=O)[C@H](CCCNC(=N)N)NC(=O)[C@@H](NC(=O)[C@H](C)NC(=O)[C@H](CCC(=O)O)NC(=O)[C@H](CCC(=O)O)NC(=O)[C@H](CCC(=O)O)NC(=O)[C@H](CC(C)C)NC(=O)[C@H](CCC(N)=O)NC(=O)[C@H](CCCNC(=N)N)NC(=O)[C@H](CO)NC(=O)[C@H](CC(C)C)NC(=O)[C@H](CC(=O)O)NC(=O)[C@H](CO)NC(=O)[C@@H](NC(=O)[C@H](Cc1ccccc1)NC(=O)[C@@H](NC(=O)CNC(=O)[C@H](CCC(=O)O)NC(=O)CNC(=O)[C@@H](N)Cc1c[nH]cn1)[C@@H](C)O)[C@@H](C)O)C(C)C)[C@@H](C)CC)C(=O)N[C@@H](C)C(=O)N1CCC[C@H]1C(=O)N1CCC[C@H]1C(=O)N1CCC[C@H]1C(=O)N[C@@H](CO)C(N)=O)C(=O)O [Example 6, N-ε^34-[2-(2-[2-(2-[2-(2-[4-hexadecanoylamino-4(S)-carboxybutyrylamino]ethoxy)ethoxy]acetylamino)ethoxy]ethoxy)acetyl] [Arg^12,27,Leu^14,Lys^34]Exendin-4(1-39)amide] (H-HGEGTFTSDLSRQLEEEAVRLFIEWLRNGGPSSK([AEEA-AEEA-γGlu-Palmitoyl])APPPS-NH2; N-terminus assumed) | – | 0.018 |
